Results taken from patent publication US20250382322A1, “DIAGNOSTICS FOR DETECTING ECTO-5'-NUCLEOTIDASE (CD73)” (EBERHARD KARLS UNIVERSITÄT TÜBINGEN, priority 2022, published 2025).

Key:
[1] = test system: s.c. MDA-MB-231 xenografts; test: In vivo PET imaging in MDA-MB-231 tumor bearing mice; parameters: species or system NSG mice
Experimental: (§1) Animal models. All animal experiments were performed in accordance with the legal requirements of the European Community (Directive 2010/63/EU) and the corresponding German Animal Welfare Law (TierSchG, TierSchVersV) and were approved by the local authorizing agency (State Office for Nature, Environment and Consumer Protection North Rhine-Westphalia). MDA-MB-231 or AsPC-1 cells were cultivated in RPMI supplemented with 10% fetal calf serum and 100 U/mL penicillin and 100 μg/mL streptomycin. 5×10^6 MDA-MB-231 or AsPC-1 cells were injected subcutaneously into the shoulder region of 10 to 12 week old NSG mice (NOD.Cg-Prkdcscidll2rgtm1Wjl/SzJ, Charles River Laboratories). Two tumors were inoculated per animal and growth was followed by digital caliper measurements (volume=½ (length*width^2)).
In vivo Imaging. Adult C57bl/6 (biodistribution study, 21±1 g) or tumor bearing NSG mice (24±3 g) were anesthetized by isoflurane/O2 and one lateral tail vein was cannulated using a 27 G needle connected to 15 cm polyethylene catheter tubing. ^18F-PSB-19427 (˜450 kBq/g body weight) were injected as a bolus (50 μL compound flushed with 50 μL saline) via the tail vein and subsequent PET scanning was performed. In the blocking studies, a subgroup of tumor-bearing mice was injected with ˜1000 fold excess of unlabeled PSB-19427 10 minutes prior to radiotracer injection. […] Three-dimensional volumes of interest (VOIs) were defined over the respective organs in CT data sets, transferred to the coregistered PET data, and analyzed quantitatively. Regional uptake was calculated as a percentage of injected dose by dividing counts per milliliter in the VOI by total counts in the mouse multiplied by 100 (% ID/mL).
(§2) Ex vivo gamma counter measurements. […] Ex vivo biodistribution of radioactivity was analyzed by scintillation counting (Wizard2 gamma counter, Perkin-Elmer Life Science) and the radioactivity in respective organs decay-corrected and calculated as % ID per gram tissue (% ID/g).

[2] = Determination of log D7.4 (1-octanol/PBS); format: physicochemical
Experimental: (§3) Determination of the log D7.4-value of [^18F]2. The lipophilicity of [^18F]2 was determined following the procedure described by Prante et al.^17 Triazole [^18F]2 (˜400 kBq) in PBS buffer (10 μL, pH 7.4) was added to PBS buffer (590 μL, pH 7.4) and octan-1-ol (600 μL). The two-layer mixture was shaken for 3 min on a vortex mixer at RT and centrifuged (3000 rpm) for 5 min. The main part of the octanol layer (400 μL) was collected carefully and added to a new tube with PBS buffer (400 μL, pH 7.4). The two-layer mixture was shaken again for 10 min and centrifuged for 5 min (3000 rpm). Three samples were prepared and two aliquots (á 100 μL) of both layers were measured in a g-counter 2480 Wizard2 (Perkin-Elmer, Waltham, USA). The partition coefficient was determined by dividing cpm(octanol) by cpm(PBS) and indicated as log D7.4 (exp.).
as §3, with “D7,4-value” for “D7.4-value”, “[^18F]PSB-19427.” for “[^18F]2.”, “[^18F]PSB-19427” for “[^18F]2”, “al.^28” for “al.^17”

s.c. AsPC-1 xenografts = test: In vivo PET imaging in AsPC-1 tumor bearing mice; parameters: species or system NSG mice
Experimental: as §1, with “Two tumors were inoculated per animal and growth was followed by digital caliper measurements (volume=½ (length*width^2)).” left out
In vivo Imaging. […] Three-dimensional volumes of interest (VOIs) were defined over the respective organs in CT data sets, transferred to the coregistered PET data, and analyzed quantitatively. Regional uptake was calculated as a percentage of injected dose by dividing counts per milliliter in the VOI by total counts in the mouse multiplied by 100 (% ID/mL).
as §2

[3] = molecular target: T1, recombinant soluble human CD73 (Homo sapiens, UniProt P21589, T376A); test: CD73 enzyme inhibition assay with [2,8-3H]AMP, soluble human CD73; format: biochemical; conditions: [2,8-3H]AMP (5 μM) as substrate; Ki from IC50 by Cheng-Prusoff; read-out: Human soluble CD73 Ki ± SEM
T1 construct: mature human CD73 (residues 27-549) fused to 6×His-tag at the C-terminus; 6xHis (C); made in house; host or cells: Spodoptera frugiperda Sf9 insect cells (baculovirus, pAcGP67B vector)
T1 sequence (P21589 27-549 T376A): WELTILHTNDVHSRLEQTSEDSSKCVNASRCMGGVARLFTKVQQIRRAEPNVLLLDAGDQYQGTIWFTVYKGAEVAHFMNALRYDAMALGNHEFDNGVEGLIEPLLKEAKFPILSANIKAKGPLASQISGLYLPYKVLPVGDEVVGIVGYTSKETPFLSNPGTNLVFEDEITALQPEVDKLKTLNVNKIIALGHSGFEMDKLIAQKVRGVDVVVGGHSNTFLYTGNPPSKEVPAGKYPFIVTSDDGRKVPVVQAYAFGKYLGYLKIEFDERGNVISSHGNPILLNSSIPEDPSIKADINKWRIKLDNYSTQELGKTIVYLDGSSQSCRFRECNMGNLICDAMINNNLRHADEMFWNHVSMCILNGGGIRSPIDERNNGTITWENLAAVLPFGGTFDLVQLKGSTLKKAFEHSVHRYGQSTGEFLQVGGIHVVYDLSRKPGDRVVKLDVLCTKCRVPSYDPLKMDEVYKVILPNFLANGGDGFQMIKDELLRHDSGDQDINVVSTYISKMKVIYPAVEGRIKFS
Experimental: Compound 2b, its precursor 1, and 20 were investigated for their CD73-inhibitory potency using tritium-labeled AMP as a substrate.^20 After incubation with CD73, non-hydrolyzed substrate and inorganic phosphate were precipitated using a solution of lanthanum chloride, and the precipitate was separated from the solution containing the reaction product [2,8-^3H]adenosine by filtration through GF/B glass fiber filters (WhatmanTM GE Healthcare, Chicago, IL, USA) using a cell harvester (M-48, Brandel, Gaitherburg, MD, USA). The filtrates (ca. 1.8 mL each) were transferred to scintillation vials, scintillation cocktail ULTIMA Gold XR (PerkinElmer, Waltham, MA, USA) was added (5 mL), and the radioactivity esd quantified by scintillation counting. CD73 preparations were (1) recombinant soluble human CD73,^13 (2) recombinant soluble rat CD73,^21 both expressed in Spodoptera frugiperda 9 (Sf) cells, (3) membrane preparations of MDA-MB-231 cells,^16 a human triple-negative breast cancer cell line with high expression of CD73,^18 and (4) membrane preparations of the 4T1.2 cell line, a mouse CD73-expressing breast cancer cell line.^22 The potency of the compounds was determined by measurements of full concentration-inhibition curves. K values were calcuated from the obtained IC50 values employing the Cheng-Prusoff equation.^23
Human soluble CD73 was expressed in Spodoptera frugiperda (Sf9) insect cells and purified as previously described.^16 The cDNA encoding for the mature human CD73 (residues 27-549) fused to 6×His-tag at the C-terminus (Genbank accession no. NM_002526) corresponding to the natural variant T376A (P21589/VAR_022091, UniProtKB/Swiss-Prot) was ligated into the pAcGP67B vector. For transfection, 1 μl of the recombinant vector (1000 ng/μl) mixed with 2.5 μl of baculovirus genomic DNA ProEasy™ (AB vector, CA, USA) was used to transfect Sf9 cells grown in Insect-XPRESS™ medium (#BE12-7300, Lonza, Switzerland) supplemented with 10 mg/l gentamicin. […]

Row | SMILES | change of tumor-to-muscle ratios in blocking study ([1]; MDA-MB-231, pretreating with unlabeled compound 2 10 min before tracer injection) | accumulation in the tumor as compared to FDG ([1]; MDA-MB-231 tumors, 90 min and 4 h, especially in relation to muscle uptake) | accumulation of the tracer in the tumor xenografts as compared to muscle tissue ([1]; PET 4 h p.i., i.v., MDA-MB-231 xenografts) | factor of increase of measured solubility in PBS-buffer (1-octanol/PBS) versus clog P ([2]; compared to clog P 0.22) | factor of increase of measured solubility in PBS-buffer (1-octanol/PBS) versus clog P ([2]; compared to clog P 0.47) | logD ([2]; octan-1-ol/PBS buffer, 1-octanol/PBS pH 7.4) | change of tumor-to-muscle ratios in blocking study (s.c. AsPC-1 xenografts; AsPC-1, pretreating with PSB-12651 (7) 10 min before tracer injection) | accumulation of the tracer in the tumor xenografts as compared to muscle tissue (s.c. AsPC-1 xenografts; PET 4 h p.i., i.v., AsPC-1 xenografts) | Ki [3] [nM]
1 | CCCN(Cc1ccc(-c2cn(CC[18F])nn2)cc1)c1nc(Cl)nc2c1ncn2C1O[C@H](COP(=O)(O)CP(=O)(O)O)C(O)C1O (stereo partly drawn) [[^18F]2, [^18F]-[((2R,3S,4R,5R)-5-{2-chloro-6-[(4-{1-[2-(fluoro)ethyl]-1H-1,2,3-triazol-4-yl}benzyl)(propyl)amino]-9H-purin-9-yl}-3,4-dihydroxytetrahydrofuran-2-yl)methoxy]methylenebisphosphonic acid] | significant decrease of tumor-to-muscle ratios | higher accumulation | pronounced accumulation | 2.2 | 3.9 | -0.12 ± 0.03 | significant decrease of tumor-to-muscle ratios | pronounced accumulation | 
2 | C#Cc1ccc(CN(CCC)c2nc(Cl)nc3c2ncn3[C@@H]2O[C@H](COP(=O)(O)CP(=O)(O)O)C(O)C2O)cc1 (stereo partly drawn) [Compound 1] |  |  |  |  |  |  |  |  | 0.372 ± 0.03
